Laboratory results from patent US9029359B2, “Heteroaryl Btk inhibitors” (Biogen Idec MA, Inc., priority 2009, dated 2015).

biological target: T1, BTK (Homo sapiens, UniProt Q06187); assay: In vitro BTK kinase assay: BTK-POLYGAT-LS ASSAY; format: biochemical; settings: ATP 10 uM
T1 construct: purchased Upstate 14-552
Summary of the method: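 BTK phosphorylation of polyGAT (100 nM final) with ATP at 10 μM final, 10 mM Tris-HCl pH 7.5 kinase buffer, quenched by EDTA after 30 min. Potency given as IC50.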

T1 sequence (Q06187 whole entry): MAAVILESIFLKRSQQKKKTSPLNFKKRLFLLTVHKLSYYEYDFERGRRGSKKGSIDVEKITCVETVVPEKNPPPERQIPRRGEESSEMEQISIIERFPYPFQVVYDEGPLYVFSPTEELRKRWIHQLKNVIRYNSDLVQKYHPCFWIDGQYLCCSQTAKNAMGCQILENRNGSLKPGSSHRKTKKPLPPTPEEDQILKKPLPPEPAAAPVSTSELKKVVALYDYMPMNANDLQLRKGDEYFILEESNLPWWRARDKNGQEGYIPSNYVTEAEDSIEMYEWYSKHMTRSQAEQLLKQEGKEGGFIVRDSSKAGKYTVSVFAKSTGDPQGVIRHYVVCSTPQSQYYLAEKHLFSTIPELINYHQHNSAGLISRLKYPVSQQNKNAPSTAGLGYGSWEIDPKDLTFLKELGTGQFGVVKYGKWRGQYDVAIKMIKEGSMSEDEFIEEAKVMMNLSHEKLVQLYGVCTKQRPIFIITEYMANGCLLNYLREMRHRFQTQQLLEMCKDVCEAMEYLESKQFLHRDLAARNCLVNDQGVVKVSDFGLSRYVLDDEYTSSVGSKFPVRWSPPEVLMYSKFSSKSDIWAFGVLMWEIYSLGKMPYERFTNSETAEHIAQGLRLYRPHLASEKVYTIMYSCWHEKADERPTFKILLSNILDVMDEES

| SMILES | IC50 [nM] |
| --- | --- |
| Nc1ncnc(N2CCC[C@@H](NC(=O)CNc3cc(Cl)cc(Cl)c3)C2)c1CCCO [Example 320] | 100 to 999 |
| CC(C)Oc1cccc(NCC(=O)NC2CCCN(c3ncnc4[nH]ccc34)C2)c1 (centres unmarked) [Example 50, (N-(1-(7H-pyrrolo[2,3-d]pyrimidin-4-yl)piperidin-3-yl)-2-(3-isopropoxyphenylamino)acetamide)] | 1000 to 10000 |
| O=C(CNc1ccc(Cl)cc1F)N[C@@H]1CCCN(c2ncnc3[nH]ccc23)C1 [Example 418] | 1000 to 10000 |
| O=C(CNc1cccc(-n2cccn2)c1)NC1CCCN(c2ncnc3[nH]ccc23)C1 (centres unmarked) [Example 77, (2-(3-(1H-pyrazol-1-yl)phenylamino)-N-(1-(7H-pyrrolo[2,3-d]pyrimidin-4-yl)piperidin-3-yl)acetamide)] | 100 to 999 |
| CC(C)n1ccc(NCC(=O)NC2CCCN(c3ncnc4[nH]ccc34)C2)n1 (centres unmarked) [Example 331] | > 10000 |
| O=C(CNC1CCc2ccccc21)NC1CCCN(c2ncnc3[nH]ccc23)C1 (centres unmarked) [Example 355] | > 10000 |
| O=C(CNC1CCCC1)NC1CCCN(c2ncnc3[nH]ccc23)C1 (centres unmarked) [Example 72] | 1000 to 10000 |
| O=C(CNc1ccccc1OCC1CC1)N[C@@H]1CCCN(c2ncnc3[nH]ncc23)C1 [Example 380] | 100 to 999 |
| Cc1nccc(-c2cccc(NCC(=O)N[C@@H]3CCCN(c4ncnc5[nH]ccc45)C3)c2)n1 [Example 436] | 1000 to 10000 |
| O=C(CNc1cc(C(F)(F)F)ccc1N1CCCCC1)N[C@@H]1CCCN(c2ncnc3[nH]ccc23)C1 [Example 423] | 1000 to 10000 |
| COc1cccc(NCC(=O)N[C@@H]2CCCN(c3ncnc4[nH]ccc34)C2)c1 [Example 322] | 100 to 999 |
| O=C(CNc1ccccc1S(=O)(=O)N1CCCCC1)NC1CCCCN(c2ncnc3[nH]ncc23)C1 (centres unmarked) [Example 170] | < 100 |
| O=C(CNC1CCCc2ccccc21)NC1CCCN(c2ncnc3[nH]ccc23)C1 (centres unmarked) [Example 356] | > 10000 |
| O=C(CNc1ccccc1S(=O)(=O)N1CC2CCCC2C1)N[C@@H]1CCCN(c2ncnc3[nH]ncc23)C1 (some centres unmarked) [Example 227] | < 100 |
| O=C(CNC1c2ccccc2-c2ccccc21)N[C@@H]1CCCN(c2ncnc3[nH]ccc23)C1 [Example 459] | 1000 to 10000 |
| O=C(CNc1ccccc1F)NC1CCCN(c2ncnc3[nH]ccc23)C1 (centres unmarked) [Example 23, (N-(1-(7H-pyrrolo[2,3-d]pyrimidin-4-yl)piperidin-3-yl)-2-(2-fluorophenylamino)acetamide)] | 100 to 999 |
| O=C(CNc1cccc(-c2cc[nH]n2)c1)N[C@@H]1CCCN(c2ncnc3[nH]ccc23)C1 [Example 396] | 1000 to 10000 |
| CC1(C)CCCN(S(=O)(=O)c2ccccc2NCC(=O)N[C@@H]2CCCN(c3ncnc4[nH]ncc34)C2)C1 [Example 198] | < 100 |
| O=C(CNc1ccccc1Oc1ccccc1)N[C@@H]1CCCN(c2ncnc3[nH]ncc23)C1 [Example 204] | < 100 |
| CC(C)[C@@H](Nc1ccccc1)C(=O)N[C@@H]1CCCN(c2ncnc3[nH]ccc23)C1 [Example 103, (R)—N—((R)-1-(7H-pyrrolo[2,3-d]pyrimidin-4-yl)piperidin-3-yl)-3-methyl-2-(phenylamino)butanamide] | 100 to 999 |
| CC(C)Nc1cc(N2CCC[C@@H](NC(=O)CNc3cc(Cl)cc(Cl)c3)C2)ncn1 [Example 142, (R)-2-(3,5-dichlorophenylamino)-N-(1-(6-(isopropylamino)pyrimidin-4-yl)piperidin-3-yl)acetamide] | 1000 to 10000 |

| SMILES | IC50 [nM] |
| --- | --- |
| O=C(N[C@@H]1CCCN(c2ncnc3[nH]ncc23)C1)[C@H](Nc1cccc(Cl)c1)C1CC1 [Example 231] | < 100 |
| NC(=O)c1c(N)ncnc1N1CCC[C@@H](NC(=O)CNc2cc(Cl)cc(Cl)c2)C1 [Example 326] | 100 to 999 |
| O=C(CNc1cccc2ncccc12)N[C@@H]1CCCN(c2ncnc3[nH]ccc23)C1 [Example 405] | 1000 to 10000 |
| CC(C)c1ccccc1N[C@@H](C(=O)N[C@@H]1CCCN(c2ncnc3[nH]ccc23)C1)C1CC1 [Example 284] | 100 to 999 |
| CC(C)(C)c1cccc(NCC(=O)N[C@@H]2CCCN(c3ncnc4[nH]ccc34)C2)c1 [Example 440] | 100 to 999 |
| Cc1ccc(F)c(NCC(=O)N[C@@H]2CCCN(c3ncnc4[nH]ccc34)C2)c1 [Example 386] | 100 to 999 |
| CCC[C@@H](Nc1cccc2c1OC(F)(F)O2)C(=O)N[C@@H]1CCCN(c2ncnc3[nH]ncc23)C1 [Example 371] | 100 to 999 |
| O=C(CNc1ccccc1S(=O)(=O)c1ccccc1)N[C@@H]1CCCN(c2ncnc3[nH]ncc23)C1 [Example 163] | < 100 |
| Cc1cccc(NC(C(=O)NC2CCCN(c3ncnc4[nH]ccc34)C2)C2CCCC2)c1 (centres unmarked) [Example 461] | 1000 to 10000 |
| CC1(C)CCN(S(=O)(=O)c2ccccc2NCC(=O)N[C@@H]2CCCN(c3ncnc4[nH]ccc34)C2)CC1 [Example 250] | < 100 |
| O=C(N[C@@H](C(=O)N[C@@H]1CCCN(c2ncnc3[nH]ccc23)C1)C1CC1)c1ccccc1O [Example 230] | 100 to 999 |
| CC1CCCN(S(=O)(=O)c2ccccc2NCC(=O)N[C@@H]2CCCN(c3ncnc4[nH]ncc34)C2)C1 (some centres unmarked) [Example 370] | < 100 |
| O=C(CNc1ccc(F)cc1Cl)N[C@@H]1CCCN(c2ncnc3[nH]ccc23)C1 [Example 417] | 100 to 999 |
| O=C(CNc1cccc(N2CCOCC2)c1)NC1CCCN(c2ncnc3[nH]ccc23)C1 (centres unmarked) [Example 83, (N-(1-(7H-pyrrolo[2,3-d]pyrimidin-4-yl)piperidin-3-yl)-2-(3-morpholinophenylamino)acetamide)] | 1000 to 10000 |
| O=C(CNc1c(F)cc(F)cc1F)N[C@@H]1CCCN(c2ncnc3[nH]ccc23)C1 [Example 438] | 1000 to 10000 |
| O=C(CNc1cccc(C(F)(F)F)n1)NC1CCCN(c2ncnc3[nH]ccc23)C1 (centres unmarked) [Example 334] | 1000 to 10000 |
| O=C(CNc1cccc([N+](=O)[O-])c1)N[C@@H]1CCCN(c2ncnc3[nH]ccc23)C1 [Example 432] | 1000 to 10000 |
| O=C(CNC(Cc1ccccc1)c1ccccc1)N[C@@H]1CCCN(c2ncnc3[nH]ccc23)C1 (some centres unmarked) [Example 431] | 1000 to 10000 |
| CC(C)c1ccccc1N[C@H](C)C(=O)N[C@@H]1CCCN(c2ncnc3[nH]ccc23)C1 [Example 269] | 100 to 999 |
| O=C(CNc1ccccc1OC1CCCC1)N[C@@H]1CCCN(c2ncnc3[nH]ncc23)C1 [Example 245] | < 100 |
| CS(=O)(=O)c1ccccc1NCC(=O)N[C@@H]1CCCN(c2ncnc3[nH]ccc23)C1 [Example 450] | 1000 to 10000 |

| SMILES | IC50 [nM] |
| --- | --- |
| Cc1c(Cl)cccc1NCC(=O)NC1CCCN(c2ncnc3[nH]ccc23)C1 (centres unmarked) [Example 52, (N-(1-(7H-pyrrolo[2,3-d]pyrimidin-4-yl)piperidin-3-yl)-2-(3-chloro-2-methylphenylamino)acetamide)] | 100 to 999 |
| CCOc1ccc(OCC)c(NCC(=O)N[C@@H]2CCCN(c3ncnc4[nH]ccc34)C2)c1 [Example 414] | 1000 to 10000 |
| O=C(CNC(=O)c1ccc(Cl)cc1)NC1CCCN(c2ncnc3[nH]ccc23)C1 (centres unmarked) [Example 94, (N-(2-(1-(7H-pyrrolo[2,3-d]pyrimidin-4-yl)piperidin-3-ylamino)-2-oxoethyl)-4-chlorobenzamide)] | 1000 to 10000 |
| CS(=O)(=O)c1cccc(NCC(=O)NC2CCCN(c3ncnc4[nH]ccc34)C2)c1 (centres unmarked) [Example 28, (N-(1-(7H-pyrrolo[2,3-d]pyrimidin-4-yl)piperidin-3-yl)-2-(3-(methylsulfonyl)phenylamino)acetamide)] | 1000 to 10000 |
| O=C(CNc1ccccc1S(=O)(=O)c1ccc(C(F)(F)F)cc1)N[C@@H]1CCCN(c2ncnc3[nH]ncc23)C1 [Example 235] | < 100 |
| O=C(CNc1ccccc1N1CCCCC1)N[C@@H]1CCCN(c2ncnc3[nH]ccc23)C1 [Example 290] | 100 to 999 |
| O=C(CNc1ccccc1)N[C@H]1CCN(c2ncnc3[nH]ccc23)C1 [Example 359] | > 10000 |
| O=C(CNc1cccc(N2CCCC2)c1)NC1CCCN(c2ncnc3[nH]ccc23)C1 (centres unmarked) [Example 56, (N-(1-(7H-pyrrolo[2,3-d]pyrimidin-4-yl)piperidin-3-yl)-2-(3-(pyrrolidin-1-yl)phenylamino)acetamide)] | 100 to 999 |
| COc1ccccc1NCC(=O)N[C@@H]1CCCN(c2ncnc3[nH]ccc23)C1 [Example 309] | 100 to 999 |
| O=C(CNc1ccc(Cl)c(Cl)c1)N[C@@H]1CCCN(c2ncnc3[nH]ccc23)C1 [Example 286] | 100 to 999 |
| CC(C)(C)[C@@H](Nc1cc(F)cc(Cl)c1)C(=O)N[C@@H]1CCCN(c2ncnc3[nH]ccc23)C1 [Example 124, (R)—N—((R)-1-(7H-pyrrolo[2,3-d]pyrimidin-4-yl)piperidin-3-yl)-2-(3-chloro-5-fluorophenylamino)-3,3-dimethylbutanamide] | < 100 |
| Cc1cc(NCC(=O)N[C@@H]2CCCN(c3ncnc4[nH]ccc34)C2)ccc1Cl [Example 415] | 1000 to 10000 |
| C[C@H](O)[C@@H](Nc1cccc(Cl)c1)C(=O)N[C@@H]1CCCN(c2ncnc3[nH]ccc23)C1 [Example 233] | < 100 |
| O=C(NC1CCCCN(c2ncnc3[nH]ncc23)C1)[C@H](Nc1cc(F)cc(Cl)c1)C1CC1 (some centres unmarked) [Example 184] | < 100 |
| Cn1ccc(-c2cccc(NCC(=O)NC3CCCN(c4ncnc5[nH]ccc45)C3)c2)n1 (centres unmarked) [Example 60] | 1000 to 10000 |
| CC(=O)Nc1cc(N2CCC[C@@H](NC(=O)CNc3cc(Cl)cc(Cl)c3)C2)ncn1 [Example 141, (R)—N-(1-(6-acetamidopyrimidin-4-yl)piperidin-3-yl)-2-(3,5-dichlorophenylamino)acetamide] | 1000 to 10000 |
| CCN(C)S(=O)(=O)c1ccccc1NCC(=O)N[C@@H]1CCCN(c2ncnc3[nH]ccc23)C1 [Example 207] | < 100 |
| CC[C@@H](Nc1cc(Cl)cc(Cl)c1)C(=O)N[C@@H]1CCCN(c2ncnc3[nH]ncc23)C1 [Example 130, (R)—N—((R)-1-(1H-pyrazolo[3,4-d]pyrimidin-4-yl)piperidin-3-yl)-2-(3,5-dichlorophenylamino)butanamide] | < 100 |
| O=C(CNc1cccc2c1CCC2)N[C@@H]1CCCN(c2ncnc3[nH]ccc23)C1 [Example 324] | 100 to 999 |
| CC(C)(O)[C@@H](Nc1cc(F)cc(Cl)c1)C(=O)N[C@@H]1CCCN(c2ncnc3[nH]ccc23)C1 [Example 296] | 100 to 999 |
